Each compound was assayed on MV-4-11 cells (assay: Cell Viability Assay in MV-4-11 Cells). Conditions: Homo sapiens, MV4-11, 72 h.
Assay type: cell-based
How it was run: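 MV-4-11 cells at 7,000/well in IMDM with 10% FBS, exposed to compound for 72 h. Viability by CellTiter-Glo luminescence, normalized to DMSO as 100%, fitted with a four-parameter curve.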
For Cc1cccc2ccnc(N(C(=O)c3ccc(C#N)c(-c4ccc(-c5ccccc5)cc4)c3)[C@@H]3CCCNC3)c12 [Example 327, 4-cyano-N-(8-methyl-1-isoquinolyl)-3-(4-phenylphenyl)-N-[(3R)-3-piperidyl]benzamide], the IC50 was 2700 nM.
Work on Cc1csc2ccnc(N(C(=O)c3ccc(-c4nnn5c4COCC5)cc3F)[C@@H]3CCCNC3)c12 [Example 635, (R)-4-(6,7-dihydro-4H-[1,2,3]triazolo[5,1-c][1,4]oxazin-3-yl)-2-fluoro-N-(3-methylthieno[3,2-c]pyridin-4-yl)-N-(piperidin-3-yl)benzamide] yielded an IC50 of 100 nM.

Same assay, conditions: Homo sapiens, MV4-11, 72 h, MV-4-11 cells, 72 h, Cell-Titer Glo; read-out: IC50
Cc1nnc(-c2ccc(C(=O)N(c3nccc4c(C)ccc(C)c34)[C@@H]3CCCNC3)nc2)s1 [Example 877, N-(5,8-dimethyl-1-isoquinolyl)-5-(5-methyl-1,3,4-thiadiazol-2-yl)-N-[(3R)-3-piperidyl]pyridine-2-carboxamide] was tested, and the IC50 was 790 nM.
For CCCNc1ccnc(Nc2ccc(C(=O)N(c3nccc4cccc(C)c34)[C@@H]3CCCNC3)c(F)c2)n1 [Example 746, (R)-2-fluoro-N-(8-methylisoquinolin-1-yl)-N-(piperidin-3-yl)-4-((4-(propylamino)pyrimidin-2-yl)amino)benzamide], the IC50 was 33 nM.
Cc1cccc2ccnc(N(C(=O)c3ccc(Nc4ncncn4)cc3F)[C@@H]3CCCNC3)c12 [Example 473, (R)-4-((1,3,5-triazin-2-yl)amino)-2-fluoro-N-(8-methylisoquinolin-1-yl)-N-(piperidin-3-yl)benzamide] showed an IC50 of 300 nM.
Cc1cccc2ccnc(N(C(=O)c3ccc(Nc4nccnn4)cc3F)[C@@H]3CCCNC3)c12 [Example 953, (R)-4-(1,2,4-triazin-3-ylamino)-2-fluoro-N-(8-methylisoquinolin-1-yl)-N-(piperidin-3-yl)benzamide] showed an IC50 of 100 nM.
For Cc1cccc2ccnc(N(C(=O)c3ccc(-c4cn(C)nn4)cn3)[C@@H]3CCCNC3)c12 [Example 809, (R)-5-(1-methyl-1H-1,2,3-triazol-4-yl)-N-(8-methylisoquinolin-1-yl)-N-(piperidin-3-yl)picolinamide], the IC50 was 200 nM.
For Cc1cccc2ccnc(N(C(=O)c3ccc(-c4cnn(C)c4N)cc3F)[C@@H]3CCCNC3)c12 [Example 388, 4-(5-amino-1-methyl-pyrazol-4-yl)-2-fluoro-N-(8-methyl-1-isoquinolyl)-N-[(3R)-3-piperidyl]benzamide], the IC50 was 76 nM.
In the case of Cn1cc(-c2ccc(C(=O)N(c3nccc4sc(-c5cnn(Cc6cccnc6)c5)cc34)[C@@H]3CCCNC3)c(F)c2)nn1 [Example 485, 2-fluoro-4-(1-methyltriazol-4-yl)-N-[(3R)-3-piperidyl]-N-[2-[1-(3-pyridylmethyl)pyrazol-4-yl]thieno [3,2-c]pyridin-4-yl] benzamide], the IC50 is reported as 980 nM.
CNC(=O)c1cc(-c2cc3c(N(C(=O)c4ccc(-n5nnc6cccnc65)cc4F)[C@@H]4CCCNC4)nccc3s2)ccn1 [Example 374, 4-[4-[[2-fluoro-4-(triazolo[4,5-b]pyridin-3-yl)benzoyl]-[(3R)-3-piperidyl]amino]thieno[3,2-c]pyridin-2-yl]-N-methyl-pyridine-2-carboxamide] was tested, and the IC50 was 600 nM.
For C#Cc1csc2ccnc(N(C(=O)c3ccc(-c4nnc(C)s4)cc3F)[C@@H]3CCCNC3)c12 [Example 652, N-(3-ethynylthieno[3,2-c]pyridine-4-yl)-2-fluoro-4-(5-methyl-1,3,4-thiadiazol-2-yl)-N-[(3R)-3-piperidyl] benzamide], the IC50 was 180 nM.
COCCc1c(-c2ccc(C(=O)N(c3nccc4cc(Cl)cc(C)c34)[C@@H]3CCCNC3)c(F)c2)nnn1C [Example 636, (R)—N-(6-chloro-8-methylisoquinolin-1-yl)-2-fluoro-4-(5-(2-methoxyethyl)-1-methyl-1H-1,2,3-triazol-4-yl)-N-(piperidin-3-yl)benzamide] was tested, and the IC50 was 100 nM.
Cn1cc(-c2ccc(C(=O)N(c3nccc4sc(-c5ccc(-c6cn[nH]c6)cc5)cc34)[C@@H]3CCCNC3)c(F)c2)nn1 [Example 597] gave an IC50 of 190 nM.
In the case of O=C(O)c1nc(-c2cc3c(N(C(=O)c4ccc(-n5nnc6cccnc65)cc4F)[C@@H]4CCCNC4)nccc3s2)cs1 [Example 502, 4-[4-[[2-fluoro-4-(triazolo[4,5-b]pyridin-3-yl)benzoyl]-[(3R)-3-piperidyl]amino]thieno[3,2-c]pyridin-2-yl]thiazole-2-carboxylic acid], the IC50 is reported as 2100 nM.
With COc1cccc(-c2cc3c(N(C(=O)c4ccc(-n5nnc6cccnc65)cc4F)[C@@H]4CCCNC4)nccc3s2)c1 [Example 385, (R)-4-(3H-[1,2,3]triazolo[4,5-b]pyridin-3-yl)-2-fluoro-N-(2-(3-methoxyphenyl)thieno[3,2-c]pyridin-4-yl)-N-(piperidin-3-yl)benzamide] the IC50 was 520 nM.
O=C(c1ccc(Nc2ncccn2)cc1F)N(c1nccc2ccccc12)[C@@H]1CCCNC1 [Example 927, (R)-2-fluoro-N-(isoquinolin-1-yl)-N-(piperidin-3-yl)-4-(pyrimidin-2-ylamino)benzamide] showed an IC50 of 200 nM.
In the case of COCCCc1nnc(-c2ccc(C(=O)N(c3nccc4scc(C)c34)[C@@H]3CCCNC3)cc2)s1 [Example 876, 4-[5-(3-methoxypropyl)-1,3,4-thiadiazol-2-yl]-N-(3-methylthieno[3,2-c]pyridin-4-yl)-N-[(3R)-3-piperidyl]benzamide], the IC50 is reported as 290 nM.
Cc1cccc2ccnc(N(C(=O)c3ccc(Nc4ncnc(N5CCCC5)n4)cc3F)[C@@H]3CCCNC3)c12 [Example 968, 2-fluoro-N-(8-methylisoquinolin-1-yl)-N-[(3R)-piperidin-3-yl]-4-{[4-(pyrrolidin-1-yl)-1,3,5-triazin-2-yl]amino}benzamide] gave an IC50 of 40 nM.
O=C(c1ccc(Nc2ncccn2)cc1F)N(c1nccc2sc(-c3ccncc3)cc12)[C@@H]1CCCNC1 [Example 433] showed an IC50 of 26 nM.
In the case of Cc1cc(F)cc2ccnc(N(C(=O)c3ccc(-c4nnn(C)c4C)cc3F)[C@@H]3CCCNC3)c12 [Example 829, (R)-4-(1,5-dimethyl-1H-1,2,3-triazol-4-yl)-2-fluoro-N-(6-fluoro-8-methylisoquinolin-1-yl)-N-(piperidin-3-yl)benzamide], the IC50 is reported as 130 nM.
For Cc1cccc2ccnc(N(C(=O)N3CCCC4(CCN(C(=O)OCc5ccccc5)CC4)C3)[C@@H]3CCCNC3)c12 [Example 342, benzyl (R)-2-((8-methylisoquinolin-1-yl)(piperidin-3-yl)carbamoyl)-2,9-diazaspiro [5.5]undecane-9-carboxylate], the IC50 was 2000 nM.
For Cc1cccc2ccnc(N(C(=O)c3ccc(Nc4nccc(NCc5cccnc5)n4)cc3F)[C@@H]3CCCNC3)c12 [Example 696, (R)-2-fluoro-N-(8-methylisoquinolin-1-yl)-N-(piperidin-3-yl)-4-((4-((pyridin-3-ylmethyl)amino)pyrimidin-2-yl)amino)benzamide], the IC50 was 200 nM.
Cn1cc(-c2ccc(C(=O)N(c3nccc4sc(-c5ccc(-c6cc[nH]n6)cc5)cc34)[C@@H]3CCCNC3)c(F)c2)nn1 [Example 529, 2-fluoro-4-(1-methyltriazol-4-yl)-N-[(3R)-3-piperidyl]-N-[2-[4-(1H-pyrazol-3-yl)phenyl]thieno [3,2-c]pyridin-4-yl] benzamide] was tested, and the IC50 was 140 nM.
With Cc1cc(Cl)cc2ccnc(N(C(=O)c3ccc(Nc4ncccn4)cc3F)[C@@H]3CCCNC3)c12 [Example 793, N-(6-chloro-8-methyl-1-isoquinolyl)-2-fluoro-N-[(3R)-3-piperidyl]-4-(pyrimidin-2-ylamino)benzamide] the IC50 was 200 nM.
In the case of COCCc1nnc(-c2ccc(C(=O)N(c3nccc4cc(F)cc(C)c34)[C@@H]3CCCNC3)c(F)c2)s1 [Example 852, 2-fluoro-N-(6-fluoro-8-methyl-1-isoquinolyl)-4-[5-(2-methoxyethyl)-1,3,4-thiadiazol-2-yl]-N-[(3R)-3-piperidyl]benzamide], the IC50 is reported as 56 nM.
In the case of CCc1cc(-c2cc3c(N(C(=O)c4ccc(-n5nnc6cccnc65)cc4F)[C@@H]4CCCNC4)nccc3s2)ccn1 [Example 461, N-[2-(2-ethyl-4-pyridyl)thieno[3,2-c]pyridin-4-yl]-2-fluoro-N-[(3R)-3-piperidyl]-4-(triazolo[4,5-b]pyridin-3-yl)benzamide], the IC50 is reported as 720 nM.
Cc1cc(-c2ccc(C(=O)N(c3nccc4cccc(C)c34)[C@@H]3CCCNC3)c(F)c2)[nH]n1 [Example 323, (R)-2-fluoro-4-(3-methyl-1H-pyrazol-5-yl)-N-(8-methylisoquinolin-1-yl)-N-(piperidin-3-yl) benzamide] was tested, and the IC50 was 440 nM.
Work on CCc1nnc(-c2ccc(C(=O)N(c3nccc4cc(C)cc(C)c34)[C@@H]3CCCNC3)nc2)s1 [Example 671, (R)—N-(6,8-dimethylisoquinolin-1-yl)-5-(5-ethyl-1,3,4-thiadiazol-2-yl)-N-(piperidin-3-yl)picolinamide] yielded an IC50 of 130 nM.
With Cc1cc(-c2cc3c(N(C(=O)c4ccc(-n5nnc6cccnc65)cc4F)[C@@H]4CCCNC4)nccc3s2)cc(C)c1C(N)=O [Example 606, (R)-4-(3H-[1,2,3]triazolo[4,5-b]pyridin-3-yl)-N-(2-(4-carbamoyl-3,5-dimethylphenyl)thieno[3,2-c]pyridin-4-yl)-2-fluoro-N-(piperidin-3-yl)benzamide] the IC50 was 400 nM.
For Cc1cc(C)c2c(N(C(=O)c3ccc(-c4nnc(C)s4)cn3)[C@@H]3CCCNC3)nccc2c1 [Example 701, (R)—N-(6,8-dimethylisoquinolin-1-yl)-5-(5-methyl-1,3,4-thiadiazol-2-yl)-N-(piperidin-3-yl)picolinamide], the IC50 was 150 nM.
Cc1cccc2ccnc(N(C(=O)c3ccc(Nc4nccc(C5=CCNCC5)n4)cc3F)[C@@H]3CCCNC3)c12 [Example 665, (R)-2-fluoro-N-(8-methylisoquinolin-1-yl)-N-(piperidin-3-yl)-4-((4-(1,2,3,6-tetrahydropyridin-4-yl)pyrimidin-2-yl)amino)benzamide] was tested, and the IC50 was 250 nM.
With CCc1nnc(-c2ccc(C(=O)N(c3nccc4scc(C)c34)[C@@H]3CCCNC3)c(F)c2)o1 [Example 649, (R)-4-(5-ethyl-1,3,4-oxadiazol-2-yl)-2-fluoro-N-(3-methylthieno[3,2-c]pyridin-4-yl)-N-(piperidin-3-yl)benzamide] the IC50 was 170 nM.

Reference: patent publication US20240400555A1 (Initial Therapeutics, Inc., priority 2023, published 2024)
